Source: US8841312B2, “Fused pyridine, pyrimidine and triazine compounds as cell cycle inhibitors” (Amgen Inc., priority 2007, dated 2014)

target: Cdk4/CyclinD1 (Homo sapiens (Human), UniProt P11802); assay: Cdk4 kinase inhibition assay with recombinant Cdk4/CyclinD1, Rb substrate, [33P]-ATP filter plate; assay type: biochemical; settings: 25 μM ATP, read-out: Cdk 4 IC50
Method: The Cdk4 and Cdk6 inhibitory activity of the compounds is measured with a kinase inhibition assay using recombinant Cdk4/CyclinD1 or Cdk6/CyclinD3 protein complexes. The protein substrate used in the assay is the retinoblastoma protein (Rb). The kinase reactions are carried out in a 96-well filter plate (MSDV N6B50, Millipore). […] The mixture is incubated at room temperature for 1 hour and the proteins precipitated with an equal volume of 20% TCA. The plates are washed with 10% TCA according to the manufacturer's instruction and dried at room temperature. The amount of the phosphorylated Rb is determined with a TopCount (PerkinElmer). The IC50 of a compound is determined by nonlinear regression curve fitting using software program Prism 5 (GraphPad Software).

Cdk4/CyclinD1, sequence (P11802 whole entry): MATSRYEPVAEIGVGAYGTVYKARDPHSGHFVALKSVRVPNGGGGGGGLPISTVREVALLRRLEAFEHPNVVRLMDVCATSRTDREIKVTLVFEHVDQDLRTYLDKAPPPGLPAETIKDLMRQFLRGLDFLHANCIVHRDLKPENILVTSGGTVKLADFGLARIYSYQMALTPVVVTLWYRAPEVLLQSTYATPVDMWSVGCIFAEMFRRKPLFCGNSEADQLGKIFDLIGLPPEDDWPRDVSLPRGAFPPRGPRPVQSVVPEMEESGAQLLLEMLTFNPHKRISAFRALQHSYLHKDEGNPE
Cdk4/CyclinD1, sequence (P24385 whole entry partner): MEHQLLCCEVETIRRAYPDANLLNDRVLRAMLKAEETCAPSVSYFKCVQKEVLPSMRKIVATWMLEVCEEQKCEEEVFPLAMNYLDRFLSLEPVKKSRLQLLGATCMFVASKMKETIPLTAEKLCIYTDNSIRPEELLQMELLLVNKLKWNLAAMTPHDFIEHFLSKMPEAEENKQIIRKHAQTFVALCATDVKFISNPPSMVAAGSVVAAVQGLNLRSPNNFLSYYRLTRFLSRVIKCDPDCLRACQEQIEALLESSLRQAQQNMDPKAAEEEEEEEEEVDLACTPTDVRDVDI

**Q.** With `CC1(C)CN(c2ccc(Nc3ncc4c5ccncc5n([C@@H]5CCNC5)c4n3)nc2)CCN1` [Example 338] as the compound, how does the IC50 read?
**A.** 302 nM

**Q.** With `c1cc2c3cnc(Nc4ccc(NCC5CCNC5)cn4)nc3n(C3CCCC3)c2cn1` (stereo not shown) [Example 70] as the compound, how does the IC50 read?
**A.** 3.6 nM

**Q.** How did the IC50 turn out when `CCN(CC)C1CCN(c2ccc(Nc3ncc4c5ccnc(O)c5n(C5CCCC5)c4n3)nc2)CC1` [Example 284, 9-Cyclopentyl-2-((5-(4-(diethylamino)-1-piperidinyl)-2-pyridinyl)amino)-9H-pyrido[4′,3′:4,5]pyrrolo[2,3-d]pyrimidin-8-ol] was run?
**A.** 5 nM

**Q.** Which IC50 does the source give for `CN(C)C1CCN(c2ccc(Nc3ncc4c5ccncc5n([C@H]5CCC[C@@H]5O)c4n3)nc2)CC1` [Example 399] here?
**A.** 57 nM

**Q.** How did the IC50 turn out when `COC(=O)CC1CCN(c2ccc(Nc3ncc4c5ccnc(F)c5n(C5CCCC5)c4n3)nc2)CC1` [Example 174, Methyl (1-(6-((9-cyclopentyl-8-fluoro-9H-pyrido[4′,3′:4,5]pyrrolo[2,3-d]pyrimidin-2-yl)amino)-3-pyridinyl)-4-piperidinyl)acetate] was run?
**A.** 33 nM

**Q.** For `CNC1CCN(c2ccc(Nc3ncc4c5ccncc5n([C@@H]5CCOC5)c4n3)nn2)CC1` [Example 428], which IC50 is on record?
**A.** 59 nM

**Q.** Which IC50 does the source give for `c1cc2c3cnc(Nc4ccc(N5CCNCC5)cn4)nc3n(C3CCCCC3)c2cn1` [Example 23, (9-Cyclohexyl-9H-pyrido[4′,3′,4,5]pyrrolo[2,3-d]pyrimidin-2-yl)-(5-piperazin-1-yl-pyridin-2-yl)-amine] here?
**A.** 11 nM

**Q.** How did the IC50 turn out when `C[C@H](CO)n1c2cnccc2c2cnc(Nc3ccc(N4CCN[C@@H](C)C4)cn3)nc21` [Example 381] was run?
**A.** 2000 nM

**Q.** `CNC1CCN(c2ccc(Nc3ncc4c5ccncc5n(C[C@@H](C)O)c4n3)nn2)CC1` [Example 417] was tested. Which IC50 did it give?
**A.** 151 nM

**Q.** With `O[C@H]1CCC[C@@H]1n1c2cnccc2c2cnc(Nc3ccc(N4CCNCC4)nn3)nc21` [Example 404] as the compound, how does the IC50 read?
**A.** 820 nM

**Q.** How did the IC50 turn out when `CN(C)C1CCN(c2ccc(Nc3ncc4c5ccncc5n([C@@H]5CCOC5)c4n3)nn2)CC1` [Example 391] was run?
**A.** 184 nM

**Q.** For `CN(C)C1CCN(c2ccc(Nc3ncc4c5ccncc5n([C@H]5CCC[C@@H]5O)c4n3)nn2)CC1` [Example 405], which IC50 is on record?
**A.** 750 nM

**Q.** `CC1CN(c2ccc(Nc3ncc4c5ccncc5n(C5CCCC5)c4n3)nn2)CC(C)N1` (stereo not shown) [Example 113] was tested. Which IC50 did it give?
**A.** 4.2 nM

**Q.** Which IC50 does the source give for `c1cc2c3cnc(Nc4ccc(N5CCC6(CCCN6)CC5)nn4)nc3n(C3CCCC3)c2cn1` [Example 232, 9-cyclopentyl-N-(6-(1,8-diazaspiro[45]dec-8-yl)-3-pyridazinyl)-9H-pyrido[4′,3′:4,5]pyrrolo[2,3-d]pyrimidin-2-amine] here?
**A.** 7.2 nM

**Q.** Which IC50 does the source give for `CC1CCN(c2ccc(Nc3ncc4c5ccncc5n(C5CCCC5)c4n3)nn2)C1` (stereo not shown) [Example 120] here?
**A.** 19 nM

**Q.** For `CNC1CCN(c2ccc(Nc3ncc4c5ccncc5n([C@H]5CCC[C@@H]5O)c4n3)nc2)CC1` [Example 400], which IC50 is on record?
**A.** 301 nM

**Q.** Which IC50 does the source give for `c1cc2c3cnc(Nc4cnc(NC5CCNCC5)cn4)nc3n(C3CCCC3)c2cn1` [Example 83] here?
**A.** 12 nM

**Q.** For `CN(C)C1CCN(c2ccc(Nc3ncc4c5ccncc5n(C5CCS(=O)(=O)CC5)c4n3)nc2)CC1` [Example 280, N-(5-(4-(dimethylamino)-1-piperidinyl)-2-pyridinyl)-9-(1,1-dioxidotetrahydro-2H-thiopyran-4-yl)-9H-pyrido[4′,3′:4,5]pyrrolo[2,3-d]pyrimidin-2-amine], which IC50 is on record?
**A.** 59 nM

**Q.** `COC1CCN(c2ccc(Nc3ncc4c5ccncc5n(C5CCCC5)c4n3)nn2)C1` (stereo not shown) [Example 110] was tested. Which IC50 did it give?
**A.** 3.4 nM

**Q.** `CC[C@H](C)n1c2cnccc2c2cnc(Nc3ccc(N4CCNC(C)(C)C4)cn3)nc21` [Example 328] was tested. Which IC50 did it give?
**A.** 51 nM

**Q.** Which IC50 does the source give for `C[C@H](CO)n1c2cnccc2c2cnc(Nc3ccc(N4CCNC(C)(C)C4)cn3)nc21` [Example 383] here?
**A.** 62 nM

**Q.** `c1cc2c3cnc(Nc4nsc(NC5CCNC5)n4)nc3n(C3CCCC3)c2cn1` (stereo not shown) [Example 135] was tested. Which IC50 did it give?
**A.** 10000 nM

**Q.** With `NC1CCN(c2ccc(Nc3ncc4c5cc[nH]c(=O)c5n(C5CCCC5)c4n3)nn2)CC1` [Example 126] as the compound, how does the IC50 read?
**A.** 2 nM

**Q.** For `c1cc2c3cnc(Nc4ccc(N5CCNCC5)nn4)nc3n([C@@H]3CCOC3)c2cn1` [Example 427], which IC50 is on record?
**A.** 24 nM

**Q.** With `CCN(CC)C1CCN(c2ccc(Nc3ncc4c5ccnc(F)c5n(C5CCCC5)c4n3)nc2)CC1` [Example 278, 9-Cyclopentyl-N-(5-(4-(diethylamino)-1-piperidinyl)-2-pyridinyl)-8-fluoro-9H-pyrido[4′,3′:4,5]pyrrolo[2,3-d]pyrimidin-2-amine] as the compound, how does the IC50 read?
**A.** 4.6 nM

**Q.** For `CC1(C)CN(c2ccc(Nc3ncc4c5ccncc5n([C@H]5CCC[C@H]5O)c4n3)nc2)CCN1` [Example 360], which IC50 is on record?
**A.** 66 nM

**Q.** `c1cc2c3cnc(Nc4ccc(N5CCC6(CCCN6)CC5)cn4)nc3n(C3CCCC3)c2cn1` [Example 231, 9-cyclopentyl-N-(5-(1,8-diazaspiro[45]dec-8-yl)-2-pyridinyl)-9H-pyrido[4′,3′:4,5]pyrrolo[2,3-d]pyrimidin-2-amine] was tested. Which IC50 did it give?
**A.** 3.3 nM

**Q.** Which IC50 does the source give for `C[C@@H]1CN(c2cnc(Nc3ncc4c5ccncc5n(C5CCCC5)c4n3)cn2)CCN1` [Example 80] here?
**A.** 3.5 nM

**Q.** How did the IC50 turn out when `NC1CCN(c2nc(Nc3ncc4c5ccncc5n(C5CCCC5)c4n3)ns2)CC1` [Example 131, 4-Amino-1-(3-((9-cyclopentyl-9H-pyrido[4′,3′:4,5]pyrrolo[2,3-d]pyrimidin-2-yl)amino)-5-1,2,4-thiadiazolyl)-piperidine] was run?
**A.** 174 nM

**Q.** `O[C@@H]1CCN(c2ccc(Nc3ncc4c5ccncc5n([C@H]5CCC[C@H]5O)c4n3)nn2)C1` [Example 366] was tested. Which IC50 did it give?
**A.** 330 nM

**Q.** `CCN(CC)C1CCN(c2ccc(Nc3ncc4c5ccnc(F)c5n(C5CCCC5)c4n3)nn2)CC1` [Example 277, 9-Cyclopentyl-N-(6-(4-(diethylamino)-1-piperidinyl)-3-pyridazinyl)-8-fluoro-9H-pyrido[4′,3′:4,5]pyrrolo[2,3-d]pyrimidin-2-amine] was tested. Which IC50 did it give?
**A.** 18 nM

**Q.** How did the IC50 turn out when `OC[C@H]1CN(c2ccc(Nc3ncc4c5ccnc(F)c5n(C5CCCC5)c4n3)nc2)CCN1` [Example 196, ((2R)-4-(6-((9-Cyclopentyl-8-fluoro-9H-pyrido[4′,3′:4,5]pyrrolo[2,3-d]pyrimidin-2-yl)amino)-3-pyridinyl)-2-piperazinyl)methanol] was run?
**A.** 2.4 nM

**Q.** Which IC50 does the source give for `CN1CCN(c2ccc(Nc3ncc4c5ccncc5n(C5CCCC5)c4n3)nn2)CC1` [Example 112] here?
**A.** 5.9 nM

**Q.** For `CC1CN(c2ccc(Nc3ncc4c5cc[nH]c(=O)c5n(C5CCCC5)c4n3)nn2)CC(C)N1` (stereo not shown) [Example 125], which IC50 is on record?
**A.** 12 nM

**Q.** Which IC50 does the source give for `CC1CN(c2cnc(Nc3ncc4c5ccncc5n(C5CCCC5)c4n3)cn2)CC(C)N1` (stereo not shown) [Example 79] here?
**A.** 12 nM

**Q.** How did the IC50 turn out when `C[C@H](O)Cn1c2cnccc2c2cnc(Nc3ccc(N4CC[C@@H](O)C4)cn3)nc21` [Example 424] was run?
**A.** 72 nM

**Q.** Which IC50 does the source give for `CC[C@H](C)n1c2cnccc2c2cnc(Nc3ccc(N4CCC(N(C)C)CC4)cn3)nc21` [Example 326] here?
**A.** 620 nM

**Q.** With `C[C@H]1CNCCN1c1ccc(Nc2ncc3c4ccnc(F)c4n(C4CCCC4)c3n2)nc1` [Example 177, 9-Cyclopentyl-8-fluoro-N-(5-((2S)-2-methyl-1-piperazinyl)-2-pyridinyl)-9H-pyrido[4′,3′:4,5]pyrrolo[2,3-d]pyrimidin-2-amine] as the compound, how does the IC50 read?
**A.** 5 nM

**Q.** `c1cc2c3cnc(Nc4nsc(N5CCNCC5)n4)nc3n(C3CCCC3)c2cn1` [Example 132] was tested. Which IC50 did it give?
**A.** 302 nM

**Q.** With `OCCN1CCN(c2ccc(Nc3ncc4c5ccnc(Cl)c5n(C5CCCC5)c4n3)nc2)CC1` [Example 166, 2-(4-(6-((8-Chloro-9-cyclopentyl-9H-pyrido[4′,3′:4,5]pyrrolo[2,3-d]pyrimidin-2-yl)amino)-3-pyridinyl)-1-piperazinyl)ethanol] as the compound, how does the IC50 read?
**A.** 5.5 nM

**Q.** How did the IC50 turn out when `CC[C@H](C)n1c2cnccc2c2cnc(Nc3ccc(N4CCN[C@@H](C)C4)nn3)nc21` [Example 333] was run?
**A.** 300 nM

**Q.** For `C[C@H](O)Cn1c2cnccc2c2cnc(Nc3ccc(N4CCN[C@@H](C)C4)nn3)nc21` [Example 412], which IC50 is on record?
**A.** 14 nM

**Q.** How did the IC50 turn out when `Fc1cncc2c1c1cnc(Nc3ccc(N4CCNCC4)cn3)nc1n2C1CCCC1` [Example 58, 9-Cyclopentyl-5-fluoro-N-(5-(1-piperazinyl)-2-pyridinyl)-9H-pyrido[4′,3′:4,5]pyrrolo[2,3-d]pyrimidin-2-amine] was run?
**A.** 5.2 nM

**Q.** `CNC1CCN(c2ccc(Nc3ncc4c5ccncc5n([C@@H](C)CO)c4n3)nn2)CC1` [Example 373] was tested. Which IC50 did it give?
**A.** 45 nM

**Q.** With `C[C@@H](CO)n1c2cnccc2c2cnc(Nc3ccc(N4CCC(N(C)C)CC4)cn3)nc21` [Example 370] as the compound, how does the IC50 read?
**A.** 161 nM

**Q.** For `O[C@@H]1CCN(c2ccc(Nc3ncc4c5ccncc5n([C@H]5CCC[C@H]5O)c4n3)nc2)C1` [Example 371], which IC50 is on record?
**A.** 123 nM

**Q.** For `CC1CN(c2ccc(Nc3ncc4c5cc[nH]c(=O)c5n(C5CCCC5)c4n3)nc2)CC(C)N1` (stereo not shown) [Example 124], which IC50 is on record?
**A.** 17 nM

**Q.** How did the IC50 turn out when `CN(C)C1CCN(c2ccc(Nc3ncc4c5ccncc5n([C@H]5CCOC5)c4n3)nc2)CC1` [Example 394] was run?
**A.** 1190 nM

**Q.** For `C[C@H](O)Cn1c2cnccc2c2cnc(Nc3ccc(N4CCC(N(C)C)CC4)cn3)nc21` [Example 422], which IC50 is on record?
**A.** 69 nM

**Q.** How did the IC50 turn out when `CN(C)C1CCN(c2ccc(Nc3ncc4c5ccncc5n(C5CCSCC5)c4n3)nc2)CC1` [Example 276, N-(5-(4-(dimethylamino)-1-piperidinyl)-2-pyridinyl)-9-(tetrahydro-2H-thiopyran-4-yl)-9H-pyrido[4′,3′:4,5]pyrrolo[2,3-d]pyrimidin-2-amine] was run?
**A.** 96 nM

**Q.** For `CC1CN(c2ccc(Nc3ncc4c5ccncc5n(C5CCCC5)c4n3)nc2)CC(C)N1` (stereo not shown) [Example 72], which IC50 is on record?
**A.** 2.3 nM

**Q.** `O=C(Cc1ccc(Nc2ncc3c4ccncc4n(C4CCCC4)c3n2)nc1)N1CCOCC1` [Example 244, 9-cyclopentyl-N-(5-(2-(4-morpholinyl)-2-oxoethyl)-2-pyridinyl)-9H-pyrido[4′,3′:4,5]pyrrolo[2,3-d]pyrimidin-2-amine] was tested. Which IC50 did it give?
**A.** 11 nM
